24 molecules from US8680159B2, “Bradykinin 1 receptor modulating compounds” (Gruenenthal GmbH, priority 2010, dated 2014) can be followed below.

Molecules are shown by their SMILES.

The first experiment addresses T1, B1R receptor of the rat (CHO K1 cells stably transfected with the B1R gene of the rat) (Rattus norvegicus, UniProt P97583).
T1 construct: expressed in transfected cells; host or cells: CHO K1 cells (Chinese hamster ovary), stably transfected
T1 sequence (P97583 1-337): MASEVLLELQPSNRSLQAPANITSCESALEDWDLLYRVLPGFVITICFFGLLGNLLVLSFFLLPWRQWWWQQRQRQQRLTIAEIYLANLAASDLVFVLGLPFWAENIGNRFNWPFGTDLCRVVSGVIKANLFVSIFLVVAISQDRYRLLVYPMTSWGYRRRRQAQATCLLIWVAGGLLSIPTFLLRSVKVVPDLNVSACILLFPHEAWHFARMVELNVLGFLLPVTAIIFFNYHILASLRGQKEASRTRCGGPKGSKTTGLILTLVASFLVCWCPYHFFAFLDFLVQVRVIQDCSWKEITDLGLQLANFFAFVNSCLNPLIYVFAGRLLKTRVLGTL
As to the kind of experiment: Functional study on the bradykinin receptor 1 (B1R), Ca2+ fluorescence (Fluo-4) FLIPR/Novostar assay, rB1R cells. The class given is cell-based. Particulars: 10 μM. Put shortly: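 Ca2+ influx (Fluo-4, peak fluorescence, λex 488/λem 540 nm) was measured in CHO K1 lines expressing rat or human B1R. After a 10 μM test-compound pre-addition scoring % activation, cells received EC80 agonist: Des-Arg9-bradykinin for rat, Lys-Des-Arg9-bradykinin for human. Antagonism was expressed as % of maximum inhibition, with IC50 from varied concentrations.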
For `CN(C(=O)c1ccc2c(c1)C(NC(=O)c1c(Cl)cccc1C(F)(F)F)CCC2)C1CCN(c2ccncc2)CC1` (stereo not drawn) [CC_H-249, 8-[[2-Chloro-6-(trifluoromethyl)-benzoyl]amino]-N-methyl-N-(1-pyridin-4-yl-piperidin-4-yl)-5,6,7,8-tetrahydro-naphthalene-2-carboxylic acid amide], the “% Inhibition (r-B1R) at 10 μM” value is reported as 110%.

Staying with this experiment, now noted: CHO-K1, 10 μM, library compounds CC_H, read-out: % Inhibition (r-B1R) at 10 μM.
On to `CN(C(=O)c1ccc2c(c1)C(NC(=O)c1ccccc1Cl)CC2)C1CCN(c2ccnc(C(C)(C)C)n2)CC1` (stereo not drawn) [CC_H-616, N-[1-(2-tert-Butyl-pyrimidin-4-yl)-piperidin-4-yl]-3-[(2-chloro-benzoyl)amino]-N-methyl-2,3-dihydro-1H-indene-5-carboxylic acid amide], for which the inhibition at 10 µM came out at 101%.

In the case of `CN(C(=O)c1ccc2c(c1)C(NC(=O)c1cccnc1C(F)(F)F)CC2)C1CCN(c2ccnc(N3CCCC3)n2)CC1` (stereo not drawn) [CC_H-603, N-[6-[Methyl-[1-(2-pyrrolidin-1-yl-pyrimidin-4-yl)-piperidin-4-yl]-carbamoyl]-2,3-dihydro-1H-inden-1-yl]-2-(trifluoromethyl)-pyridine-3-carboxylic acid amide], the inhibition at 10 µM came out at 102%.

Still in this experiment, the particulars now being: CHO-K1, 10 μM, read-out: % Inhibition (r-B1R) at 10 μM.
As for `CN(C(=O)c1ccc2c(c1)C(NC(=O)C1CCCCC1)CC2)C1CCN(c2ccc3cnccc3c2)CC1` (stereo not drawn) [CC_H-360, 3-(Cyclohexanecarbonylamino)-N-(1-isoquinolin-6-yl-piperidin-4-yl)-N-methyl-2,3-dihydro-1H-indene-5-carboxylic acid amide], the inhibition at 10 µM came out at 109%.

With `Cc1cc(N2CCC(N(C)C(=O)c3ccc4c(c3)C(NC(=O)Nc3cccc(Cl)c3)CC4)CC2)cc(C)n1` (stereo not drawn) [CC_H-305, 3-[[(3-Chlorophenyl)-carbamoyl]amino]-N-[1-(2,6-dimethyl-pyridin-4-yl)-piperidin-4-yl]-N-methyl-2,3-dihydro-1H-indene-5-carboxylic acid amide], the inhibition at 10 µM came out at 109%.

Turning to `CN(C(=O)c1ccc2c(c1)C(NC(=O)Nc1ccc(Cl)cc1Cl)CCO2)C1CCN(c2ccncc2)CC1` (stereo not drawn) [CC_H-286, 4-[[(2,4-Dichlorophenyl)-carbamoyl]amino]-N-methyl-N-(1-pyridin-4-yl-piperidin-4-yl)-3,4-dihydro-2H-chromene-6-carboxylic acid amide], the inhibition at 10 µM came out at 87%.

Turning to `CN(C(=O)c1ccc2c(c1)C(N(C)C(=O)Nc1cccc(Cl)c1)CC2)C1CCN(c2ccncc2)CC1` (stereo not drawn) [CC_H-218, 3-[[(3-Chlorophenyl)-carbamoyl]-methyl-amino]-N-methyl-N-(1-pyridin-4-yl-piperidin-4-yl)-2,3-dihydro-1H-indene-5-carboxylic acid amide], the inhibition at 10 µM was 109%.

With `CN(C(=O)c1ccc2c(c1)C(NC(=O)c1cc(Cl)ccc1Cl)CC2)C1CCN(c2ccc3cnccc3c2)CC1` (stereo not drawn) [CC_H-359, 3-[(2,5-Dichloro-benzoyl)amino]-N-(1-isoquinolin-6-yl-piperidin-4-yl)-N-methyl-2,3-dihydro-1H-indene-5-carboxylic acid amide], the inhibition at 10 µM turned out to be 110%.

Regarding `COCC(=O)NC1CCc2ccc(C(=O)N(C)C3CCN(c4ccncc4)CC3)cc21` (stereo not drawn) [CC_H-207, 3-[(2-Methoxy-acetyl)amino]-N-methyl-N-(1-pyridin-4-yl-piperidin-4-yl)-2,3-dihydro-1H-indene-5-carboxylic acid amide], the inhibition at 10 µM worked out at 89%.

As for `CN(C(=O)c1ccc2c(c1)C(N(C)C(=O)c1cc(F)ccc1Cl)CC2)C1CCN(c2ccncc2)CC1` (stereo not drawn) [CC_H-208, 3-[(2-Chloro-5-fluoro-benzoyl)-methyl-amino]-N-methyl-N-(1-pyridin-4-yl-piperidin-4-yl)-2,3-dihydro-1H-indene-5-carboxylic acid amide], the inhibition at 10 µM was found to be 111%.

Turning to `CN(C(=O)c1ccc2c(c1)C(NC(=O)Nc1c(Cl)cccc1Cl)CC2)C1CCN(c2ccc3cnccc3c2)CC1` (stereo not drawn) [CC_H-366, 3-[[(2,6-Dichloro-phenyl)-carbamoyl]amino]-N-(1-isoquinolin-6-yl-piperidin-4-yl)-N-methyl-2,3-dihydro-1H-indene-5-carboxylic acid amide], the inhibition at 10 µM was 92%.

Consider `Cc1cc(N2CCC(N(C)C(=O)c3ccc4c(c3)C(N(C)C(=O)C3CC3)CC4)CC2)cc(C)n1` (stereo not drawn) [CC_H-331, 3-(Cyclopropanecarbonyl-methyl-amino)-N-[1-(2,6-dimethyl-pyridin-4-yl)-piperidin-4-yl]-N-methyl-2,3-dihydro-1H-indene-5-carboxylic acid amide], for which the inhibition at 10 µM was found to be 104%.

Take `CN(C(=O)c1ccc2c(c1)C(NC(=O)c1cc(C(F)(F)F)ccc1Cl)CCC2)C1CCN(c2ccncc2)CC1` (stereo not drawn) [CC_H-247, 8-[[2-Chloro-5-(trifluoromethyl)-benzoyl]amino]-N-methyl-N-(1-pyridin-4-yl-piperidin-4-yl)-5,6,7,8-tetrahydro-naphthalene-2-carboxylic acid amide]: the inhibition at 10 µM was 112%.

With `Cc1cc(N2CCC(N(C)C(=O)c3ccc4c(c3)C(N(C)S(=O)(=O)Cc3cccc(C(F)(F)F)c3)CC4)CC2)cc(C)n1` (stereo not drawn) [CC_H-355, N-[1-(2,6-Dimethyl-pyridin-4-yl)-piperidin-4-yl]-N-methyl-3-[methyl-[[3-(trifluoromethyl)phenyl]-methylsulfonyl]-amino]-2,3-dihydro-1H-indene-5-carboxylic acid amide], the inhibition at 10 µM came out at 96%.

`CN(C(=O)c1ccc2c(c1)C(NC(=O)c1c(Cl)cccc1C(F)(F)F)CC2)C1CCN(c2ccncc2)CC1` (stereo not drawn) [CC_H-204, 3-[[2-Chloro-6-(trifluoromethyl)-benzoyl]amino]-N-methyl-N-(1-pyridin-4-yl-piperidin-4-yl)-2,3-dihydro-1H-indene-5-carboxylic acid amide]: the inhibition at 10 µM was determined as 110%.

For `CN(C(=O)c1ccc2c(c1)C(NC(=O)Nc1cc(C(F)(F)F)ccc1Cl)CCC2)C1CCN(c2ccncc2)CC1` (stereo not drawn) [CC_H-261, 8-[[[2-Chloro-5-(trifluoromethyl)-phenyl]-carbamoyl]amino]-N-methyl-N-(1-pyridin-4-yl-piperidin-4-yl)-5,6,7,8-tetrahydro-naphthalene-2-carboxylic acid amide], the inhibition at 10 µM was 103%.

As for `Cc1cc(N2CCC(N(C)C(=O)c3ccc4c(c3)C(NS(=O)(=O)Cc3cccc(C(F)(F)F)c3)CC4)CC2)cc(C)n1` (stereo not drawn) [CC_H-322, N-[1-(2,6-Dimethyl-pyridin-4-yl)-piperidin-4-yl]-N-methyl-3-[[[3-(trifluoromethyl)phenyl]-methylsulfonyl]amino]-2,3-dihydro-1H-indene-5-carboxylic acid amide], the inhibition at 10 µM was found to be 84%.

In the case of `CN(C(=O)NC1CCc2ccc(C(=O)N(C)C3CCN(c4ccc5cnccc5c4)CC3)cc21)c1ccccc1Cl` (stereo not drawn) [CC_H-375, 3-[[(2-Chlorophenyl)-methyl-carbamoyl]amino]-N-(1-isoquinolin-6-yl-piperidin-4-yl)-N-methyl-2,3-dihydro-1H-indene-5-carboxylic acid amide], the inhibition at 10 µM worked out at 91%.

In the case of `CN(C(=O)c1ccc2c(c1)C(NC(=O)Nc1cccc(Cl)c1Cl)CC2(C)C)C1CCN(c2ccncc2)CC1` (stereo not drawn) [CC_H-235, 3-[[(2,3-Dichloro-phenyl)-carbamoyl]amino]-N,1,1-trimethyl-N-(1-pyridin-4-yl-piperidin-4-yl)-2,3-dihydro-indene-5-carboxylic acid amide], the inhibition at 10 µM was found to be 65%.

With `CN(C(=O)c1ccc2c(c1)C(NC(=O)CCC1CCCC1)CC2)C1CCN(c2ccc3cnccc3c2)CC1` (stereo not drawn) [CC_H-381, 3-(3-Cyclopentyl-propanoylamino)-N-(1-isoquinolin-6-yl-piperidin-4-yl)-N-methyl-2,3-dihydro-1H-indene-5-carboxylic acid amide], the inhibition at 10 µM was 109%.

For the molecule `CN(C(=O)c1ccc2c(c1)C(NC(=O)Nc1c(Cl)cccc1Cl)CCC2)C1CCN(c2ccncc2)CC1` (stereo not drawn) [CC_H-257, 8-[[(2,6-Dichloro-phenyl)-carbamoyl]amino]-N-methyl-N-(1-pyridin-4-yl-piperidin-4-yl)-5,6,7,8-tetrahydro-naphthalene-2-carboxylic acid amide], the inhibition at 10 µM was determined as 107%.

For the molecule `Cc1cc(N2CCC(N(C)C(=O)c3ccc4c(c3)C(NC(=O)Nc3ccc(F)c(Cl)c3)CC4)CC2)cc(C)n1` (stereo not drawn) [CC_H-314, 3-[[(3-Chloro-4-fluoro-phenyl)-carbamoyl]amino]-N-[1-(2,6-dimethyl-pyridin-4-yl)-piperidin-4-yl]-N-methyl-2,3-dihydro-1H-indene-5-carboxylic acid amide], the inhibition at 10 µM is 81%.

Take `Cc1cc(N2CCC(N(C)C(=O)c3ccc4c(c3)C(NC(=O)c3cc(Cl)ccc3Cl)CC4)CC2)cc(C)n1` (stereo not drawn) [CC_H-296, 3-[(2,5-Dichloro-benzoyl)amino]-N-[1-(2,6-dimethyl-pyridin-4-yl)-piperidin-4-yl]-N-methyl-2,3-dihydro-1H-indene-5-carboxylic acid amide]: the inhibition at 10 µM was 112%.

For `CN(C(=O)c1ccc2c(c1)C(NC(=O)CC(C)(C)C)CC2)C1CCN(c2ccc3cnccc3c2)CC1` (stereo not drawn) [CC_H-362, 3-(3,3-Dimethyl-butanoylamino)-N-(1-isoquinolin-6-yl-piperidin-4-yl)-N-methyl-2,3-dihydro-1H-indene-5-carboxylic acid amide], the inhibition at 10 µM turned out to be 110%.
